Converted amounts (≈) assume the structure as drawn.
Key:
[1] = molecular target: T1, PBP2a (Staphylococcus aureus, UniProt P07944); test: PBP2a enzymatic inhibition assay (fluorescein-labeled ampicillin, residual penicillin binding activity); format: biochemical, Staphylococcus aureus ATCC 43300; settings: for remaining activity at 1000 µM: 4 h, residual activity of the enzyme at 1 mM inhibitor, 0.01% Triton X-100, mean of three experiments, read-out: PBP2a RA [%]; for IC50: in the presence of 0.01% Triton X-100
T1 construct: made in house
Description: (§1) PBP2a from Staphylococcus aureus ATCC 43300 and PBP5fm from Enterococcus faecium D63r were overproduced and purified as described previously, [18].
(§2) Each of the purified PBPs (2.5 µM) were first incubated with 1 mM potential inhibitor in 100 mM phosphate buffer, 0.01% Triton X-100[19], pH 7, for 4 h at 30°C. Then, 25 µM fluorescein-labeled ampicillin[20] was added to detect the residual penicillin binding activity (RA). The samples were further incubated for 30 min at 37°C in a total volume of 20 µL. Denaturation buffer was added (0.1 M Tris/HCl, pH 6.8, containing 25% glycerol, 2% SDS, 20% β-mercaptoethanol and 0.02% bromophenol blue) and the samples were heated to 100°C for 1 min. The samples were then loaded onto a 10% SDS-acrilamide gel (10×7 cm) and electrophoresis was performed for 45 min at 180 V (12 mA). Detection and quantification of the RAs were with Molecular Image FX equipment and Quantity One software (BioRad, Hercules, CA, USA). Three independent experiments were carried out for each inhibitor.

[2] = molecular target: PBP2x 5204 (Streptococcus pneumoniae, UniProt P59676); test: PBP2x 5204 enzymatic inhibition assay (S2d hydrolysis, DTNB); format: biochemical, Streptococcus pneumoniae strain 5204; settings: for PBP2x5204 RA [%]: 240 min
Description: PBP2x-5204 from Streptococcus pneumonia and N-benzoyl-D-alanyl-thioglycolate S2d[21], [22] were prepared as previously described. All assays with PBP2x 5204 were carried out in 96-well microtiter plates (Brand, Wertheim, Germany). PBP2x 5204 (0.6 µM) was incubated in the presence of the potential inhibitors in 10 mM sodium phosphate buffer (pH 7.0) containing 70 mM D-alanine and 0.01 mg/mL BSA, for 4 h at 25°C. This preincubation was used to also detect slow binding inhibitors. After the preincubation, the RA of PBP2x 5204 was determined. The initial rate of hydrolysis of 1 mM S2d in the presence of 1 mM DTNB was determined by monitoring the increase in absorbance at 412 nm (DTNB: ε[Δ ε] = […]) using a microplate absorbance reader (Power Wave X, Biotek Instruments, Winooski, U.S.A.). The rate of spontaneous hydrolysis of S2d in the presence of the potential inhibitors was also determined in the absence of PBP2x 5204. All of the assays were carried out in triplicate. The determination of the RA of PBP2x 5204 in the absence of inhibitors was carried out six times on each plate. A test compound was considered as an inhibitor if the RA was <80%. In this case, to reveal false positives, the assays were also carried out under the same conditions in the presence of 0.01% Triton X-100. As described in the literature, promiscuous inhibitors (false positives) are slow binding, noncompetitive inhibitors. To avoid detailed kinetic investigations, it is possible to identify such compounds by carrying out the assays in the presence of Triton X-100[14], [19]. Promiscuous inhibitors show no inhibition in the presence of Triton X-100. The IC50 values in the presence of Triton X-100 were determined if the RAs were <50%. (RA: ∼50%, IC50∼c, c: concentration of compound in the assay; RA >50%, IC50 > c). The RA was measured over a range of concentrations, from which the IC50 values were determined by non-linear regression analysis, using Sigma Plot (Systat software) and fitting the data to the equation y = y0+(a×b)/(b+x)[23].

[3] = molecular target: PBP5fm (Enterococcus faecium, UniProt Q47759); test: PBP5fm enzymatic inhibition assay (fluorescein-labeled ampicillin, residual penicillin binding activity); format: biochemical, Enterococcus faecium D63r; settings: for activity at 1000 µM: 4 h, residual activity of the enzyme at 1 mM inhibitor, 0.01% Triton X-100, read-out: PBP5fm RA [%]
Description: as §1, §2

[4] = test system: Bacillus subtilis ATCC 6633; test: In-vitro antibacterial activity (MIC, broth microdilution); format: cell-based; settings: ATCC6633
Description: (§3) Determination of the antibacterial activities was carried out on microtiter plates, in 200 µL (final volume) of Müeller-Hinton Broth (MHB), following EUCAST (European Committee on Antimicrobial Susceptibility testing)/CLSI (Clinical and Laboratory Standard Institute) recommended procedures, [25]. The compounds were solubilized in MHB, just before use. Inocula were prepared for each strain by resuspending isolated colonies from 18 h cultured plates. Equivalents of 0.5 Mac Farland turbidity standards (approximately 1×10^8 CFU mL^−1) were prepared in saline solution ([…]) and then diluted 200-fold in MBH.

[5] = test system: Citrobacter freundii ATCC 8090; test: as above; format: cell-based; settings: ATCC8090
Description: as §3

[6] = test system: Enterococcus faecalis ATCC 29212; test: as above; format: cell-based; settings: ATCC29212
Description: as §3

[7] = test system: Enterococcus faecalis ATCC 7937; test: as above; format: cell-based; settings: ATCC7937
Description: as §3

[8] = test system: Enterococcus faecium ATCC 19434; test: as above; format: cell-based; settings: ATCC19434
Description: as §3

[9] = test system: Enterococcus hirae ATCC 8790; test: as above; format: cell-based; settings: ATCC8790
Description: as §3

[10] = test system: Escherichia coli ATCC 8739; test: as above; format: cell-based; settings: ATCC8739
Description: as §3

[11] = test system: Klebsiella pneumoniae ATCC 13883; test: as above; format: cell-based; settings: ATCC13883
Description: as §3

[12] = test system: Listeria innocua ATCC 33090; test: as above; format: cell-based; settings: ATCC33090
Description: as §3

[13] = test system: Listeria monocytogenes ATCC 14780; test: as above; format: cell-based; settings: ATCC14780
Description: as §3

[14] = test system: Micrococcus luteus ATCC 9341; test: as above; format: cell-based; settings: ATCC9341
Description: as §3

[15] = test system: Proteus mirabilis ATCC 29936; test: as above; format: cell-based; settings: ATCC29936
Description: as §3

[16] = test system: Pseudomonas aeruginosa ATCC 27853; test: as above; format: cell-based; settings: ATCC27853
Description: as §3

[17] = test system: Staphylococcus aureus ATCC 25923; test: as above; format: cell-based; settings: ATCC25923
Description: as §3

[18] = test system: Staphylococcus aureus ATCC 43300 (MRSA); test: as above; format: cell-based
Description: as §3

[19] = test system: Staphylococcus aureus mp 1 (inducible MRSA); test: as above; format: cell-based
Description: as §3

[20] = test system: Staphylococcus epidermidis ATCC 12228; test: as above; format: cell-based; settings: ATCC12228
Description: as §3

[21] = test system: Streptococcus pneumoniae ATCC 33400; test: as above; format: cell-based; settings: ATCC33400
Description: as §3

[22] = test system: Streptococcus pneumoniae ATCC 49619; test: as above; format: cell-based; settings: ATCC49619
Description: as §3

[23] = test system: Streptococcus pneumoniae D39; test: as above; format: cell-based
Description: as §3

[24] = test system: panel of five Gram-negative and 15 Gram-positive bacterial strains; test: In-vitro antibacterial activity (MIC), whole panel; format: cell-based; settings: summary over the whole panel; read-out: MICs for all of the bacterial strains under investigation
Description: as §3

[25] = residual activity of the enzyme at 1 mM inhibitor

T1 sequence (P07944 whole entry): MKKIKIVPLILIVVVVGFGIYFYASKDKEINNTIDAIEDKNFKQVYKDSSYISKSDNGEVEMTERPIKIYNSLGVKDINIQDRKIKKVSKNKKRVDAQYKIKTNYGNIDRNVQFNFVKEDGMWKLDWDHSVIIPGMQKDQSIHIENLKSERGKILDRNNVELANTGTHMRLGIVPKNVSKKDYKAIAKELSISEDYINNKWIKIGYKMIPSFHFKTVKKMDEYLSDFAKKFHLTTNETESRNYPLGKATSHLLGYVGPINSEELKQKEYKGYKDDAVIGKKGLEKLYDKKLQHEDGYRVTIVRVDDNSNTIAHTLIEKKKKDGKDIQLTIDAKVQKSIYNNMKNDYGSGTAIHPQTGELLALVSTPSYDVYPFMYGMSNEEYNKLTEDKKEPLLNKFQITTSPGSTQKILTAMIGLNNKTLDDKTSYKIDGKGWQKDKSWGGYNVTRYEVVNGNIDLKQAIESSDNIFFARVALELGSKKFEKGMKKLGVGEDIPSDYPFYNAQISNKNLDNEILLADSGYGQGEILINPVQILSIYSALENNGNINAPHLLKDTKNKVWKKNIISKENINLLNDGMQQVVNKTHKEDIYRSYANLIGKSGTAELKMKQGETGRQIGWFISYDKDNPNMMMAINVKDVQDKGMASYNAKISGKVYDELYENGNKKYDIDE
Sequence of PBP2x 5204 (P59676 49-750): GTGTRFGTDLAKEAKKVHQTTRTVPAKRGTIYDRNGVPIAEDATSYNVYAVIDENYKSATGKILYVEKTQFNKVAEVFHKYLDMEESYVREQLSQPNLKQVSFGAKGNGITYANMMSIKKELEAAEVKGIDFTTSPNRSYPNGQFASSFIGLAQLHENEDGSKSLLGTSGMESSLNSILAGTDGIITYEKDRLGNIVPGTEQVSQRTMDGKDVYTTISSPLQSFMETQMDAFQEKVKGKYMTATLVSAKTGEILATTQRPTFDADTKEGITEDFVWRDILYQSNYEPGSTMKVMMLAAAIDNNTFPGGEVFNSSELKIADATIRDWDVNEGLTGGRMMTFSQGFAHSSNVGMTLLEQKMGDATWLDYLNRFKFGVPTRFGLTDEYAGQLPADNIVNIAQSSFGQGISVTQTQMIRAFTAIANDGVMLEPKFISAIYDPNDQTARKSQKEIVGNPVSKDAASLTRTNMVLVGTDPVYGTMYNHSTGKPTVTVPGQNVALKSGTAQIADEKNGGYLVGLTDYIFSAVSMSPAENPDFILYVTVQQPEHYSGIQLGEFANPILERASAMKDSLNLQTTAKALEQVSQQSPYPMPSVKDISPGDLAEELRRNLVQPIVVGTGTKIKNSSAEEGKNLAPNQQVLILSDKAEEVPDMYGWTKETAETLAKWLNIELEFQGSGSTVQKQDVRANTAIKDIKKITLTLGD
Sequence of PBP5fm (Q47759 entry or part of it): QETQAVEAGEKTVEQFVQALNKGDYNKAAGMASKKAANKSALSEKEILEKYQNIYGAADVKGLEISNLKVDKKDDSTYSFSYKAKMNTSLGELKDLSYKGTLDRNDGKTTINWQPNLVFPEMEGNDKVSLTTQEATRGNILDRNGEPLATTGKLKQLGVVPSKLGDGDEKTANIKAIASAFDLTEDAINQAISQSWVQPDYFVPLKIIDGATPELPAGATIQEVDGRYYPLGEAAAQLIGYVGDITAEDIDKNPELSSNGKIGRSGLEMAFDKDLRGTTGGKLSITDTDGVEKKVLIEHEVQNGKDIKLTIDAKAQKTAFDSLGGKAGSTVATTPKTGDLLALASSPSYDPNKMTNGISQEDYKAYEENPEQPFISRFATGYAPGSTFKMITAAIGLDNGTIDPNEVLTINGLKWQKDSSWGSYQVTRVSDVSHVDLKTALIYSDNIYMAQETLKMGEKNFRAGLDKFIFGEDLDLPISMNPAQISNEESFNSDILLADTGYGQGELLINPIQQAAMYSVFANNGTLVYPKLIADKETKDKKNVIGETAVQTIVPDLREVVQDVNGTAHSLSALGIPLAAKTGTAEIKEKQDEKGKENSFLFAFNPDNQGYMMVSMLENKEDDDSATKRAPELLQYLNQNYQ

Structure (SMILES)	remaining activity at 1000 µM [1] [%]	PBP2x5204 RA [%] [2, 25] [%]	activity at 1000 µM [3] [%]	MIC [4] [µg/mL]	MIC [5] [µg/mL]	MIC [6] [µg/mL]	MIC [7] [µg/mL]	MIC [8] [µg/mL]	MIC [9] [µg/mL]	MIC [10] [µg/mL]	MIC [11] [µg/mL]	MIC [12] [µg/mL]	MIC [13] [µg/mL]	MIC [14] [µg/mL]	MIC [15] [µg/mL]	MIC [16] [µg/mL]	MIC [17] [µg/mL]	MIC [18] [µg/mL]	MIC [19] [µg/mL]	MIC [20] [µg/mL]	further results
NC(=O)c1cccc(NS(=O)(=O)c2cccc3cccnc23)c1 [compound 2, 3-(Quinoline-8-sulfonamido)benzamide]	58	123	39	> 512	> 512	> 512	> 512	> 512	> 512	> 512	> 512	> 512	> 512	> 512	> 512	> 512	> 512	> 512	> 512	> 512	IC50 ([3]; in the presence of 0.01% Triton X-100): 930 µM; MIC [21]: > 512 µg/mL; MIC [22]: > 512 µg/mL; MIC [23]: > 512 µg/mL; MIC [24]: > 512 µg/mL
CCCOc1cccc(C(=O)Nc2ccc(Br)cc2C(=O)O)c1 [compound 9, 5-Bromo-2-(3-propoxybenzamido)benzoic acid]	0		72	32 (≈ 84.6 µM)	> 512	64 (≈ 169 µM)	64 (≈ 169 µM)	16 (≈ 42.3 µM)	16 (≈ 42.3 µM)	> 512	> 512	16 (≈ 42.3 µM)	16 (≈ 42.3 µM)	16 (≈ 42.3 µM)	> 512	> 512	32 (≈ 84.6 µM)	32 (≈ 84.6 µM)	32 (≈ 84.6 µM)	8 (≈ 21.2 µM)	IC50 [1]: 230 µM; IC50 ([2]; read-out: PBP2x5204 IC50, in the presence of 0.01% Triton X-100): 155 µM; PBP2x5204 RA [%] ([2]; residual activity of the enzyme at 500 µM inhibitor): 8%; MIC [21]: 1 µg/mL (≈ 2.64 µM); MIC [22]: 1 µg/mL (≈ 2.64 µM); MIC [23]: 1 µg/mL (≈ 2.64 µM)
CCCOc1ccc(C(=O)Nc2ccc(Br)cc2C(=O)O)cc1 [compound 6, 5-Bromo-2-(4-propoxybenzamido)benzoic acid]	0	41	68	128 (≈ 338 µM)	> 512	32 (≈ 84.6 µM)	64 (≈ 169 µM)	256 (≈ 677 µM)	32 (≈ 84.6 µM)	> 512	> 512	64 (≈ 169 µM)	64 (≈ 169 µM)	32 (≈ 84.6 µM)	> 512	> 512	16 (≈ 42.3 µM)	128 (≈ 338 µM)	128 (≈ 338 µM)	16 (≈ 42.3 µM)	IC50 [1]: 210 µM; MIC [21]: 64 µg/mL (≈ 169 µM); MIC [22]: 32 µg/mL (≈ 84.6 µM); MIC [23]: 16 µg/mL (≈ 42.3 µM)
O=S(=O)(Nc1ccc(O)cc1)c1cccc2cccnc12 [compound 3, N-(4-Hydroxyphenyl)quinoline-8-sulfonamide]	67	80	65																		
CCCOc1cccc(C(=O)Nc2ccc(C)cc2C(=O)O)c1 [compound 10, 5-Methyl-2-(3-propoxybenzamido)benzoic acid]	17	121	69	256 (≈ 817 µM)	> 512	256 (≈ 817 µM)	256 (≈ 817 µM)	128 (≈ 408 µM)	128 (≈ 408 µM)	> 512	> 512	256 (≈ 817 µM)	32 (≈ 102 µM)	256 (≈ 817 µM)	> 512	> 512	128 (≈ 408 µM)	256 (≈ 817 µM)	256 (≈ 817 µM)	128 (≈ 408 µM)	IC50 [1]: 680 µM; MIC [21]: 2 µg/mL (≈ 6.38 µM); MIC [22]: 2 µg/mL (≈ 6.38 µM); MIC [23]: 2 µg/mL (≈ 6.38 µM)
CCOc1ccc(S(=O)(=O)Nc2ccc(C(=O)O)cc2)cc1 [compound 5, 4-(4-Ethoxyphenylsulfonamido)benzoic acid]	86	81	73																		
CCOc1ccc(NS(=O)(=O)c2ccc(C(=O)O)cc2)cc1 [compound 4, 4-(N-(4-Ethoxyphenyl)sulfamoyl)benzoic acid]	83	101	100																		
CCCOc1ccc(C(=O)Nc2ccc(O)cc2C(=O)O)cc1 [compound 7, 5-Hydroxy-2-(4-propoxybenzamido)benzoic acid]	74	65	72																		
CCCOc1ccc(C(=O)Nc2ccccc2C(=O)O)cc1 [compound 8, 2-(4-Propoxybenzamido)benzoic acid]	60	103	74																		
CCCOc1cccc(C(=O)Nc2ccc(O)cc2C(=O)O)c1 [compound 11, 5-Hydroxy-2-(3-propoxybenzamido)benzoic acid]	70	118	61																		
CC1(C)S[C@@H]2[C@H](NC(=O)[C@H](N)c3ccccc3)C(=O)N2[C@H]1C(=O)O [Ampicillin, reference compound]				0.5 (≈ 1.43 µM)	128 (≈ 366 µM)	2 (≈ 5.72 µM)	2 (≈ 5.72 µM)	64 (≈ 183 µM)	64 (≈ 183 µM)	4 (≈ 11.4 µM)	256 (≈ 733 µM)	0.25 (≈ 0.715 µM)	0.5 (≈ 1.43 µM)	0.5 (≈ 1.43 µM)	2 (≈ 5.72 µM)	> 1020	0.25 (≈ 0.715 µM)	1020 (≈ 2930 µM)	1020 (≈ 2930 µM)	16 (≈ 45.8 µM)	MIC [21]: 0.03 µg/mL (≈ 0.0859 µM); MIC [22]: 0.06 µg/mL (≈ 0.172 µM); MIC [23]: 0.06 µg/mL (≈ 0.172 µM)
